Our source for the Activity, IC50 and IC90 values is ChEMBL document CHEMBL1138610, “Peganine hydrochloride dihydrate an orally active antileishmanial agent” (Bioorg Med Chem Lett, 2009).

In brackets after ≈: the same amount, converted by molar mass. Activity calls are given as the source filed them. The calls are words filed in the database; no cut-off is given here.

In data set [1] the test system is Leishmania donovani. Kind of data set: Antileishmanial activity against Leishmania donovani promastigotes assessed as inhibition of parasite multiplication at 10 ug/ml. The data set is classed as functional. Further details: scale not given: the % may be the effect or the level left.
The subject of data set [2] is Leishmania donovani. The experiment in a line: Antileishmanial activity against Leishmania donovani amastigote infected in mouse J774A1 cells expressing green fluorescence protein by flow cytometry. It is filed as functional, organism-based. Conditions: J774.A1. (In flow cytometry, cells or beads pass a laser one at a time.)
In data set [3] the test system is Leishmania donovani. The experiment in a line: Antileishmanial activity against Leishmania donovani amastigote infected in mouse J774A1 cells expressing green fluorescence protein assessed as decrease in mean fluorescence intensity at 30 to 100 ug/ml. Conditions: J774.A1. It is filed as functional, organism-based.
The test system of data set [4] is Leishmania donovani. Kind of data set: Antileishmanial activity against Leishmania donovani infected in hamster assessed inhibition of parasite growth at 50 mg/kg, po after 5 days. It is filed as functional, organism-based. Details: dose 50 mg/kg.
The subject of the next data set is J774.A1. Kind of data set: Cytotoxicity against mouse J774A1 cells at 200 uM after 48 hrs by MTT assay. Conditions: j774.a1, 48 h. The data set is classed as cell-based. A general note: Tetrazolium assays rely on reduction of a dye to a coloured formazan, in cell work by metabolically active cells.
Data set [5] has as its system Leishmania donovani. Kind of data set: Antileishmanial activity against Leishmania donovani infected in hamster assessed inhibition of parasite growth at 40 mg/kg, po after 5 days. The data set is classed as functional. Details: scale not given: the % may be the effect or the level left.
Data set [6] has as its system Leishmania donovani. Kind of data set: Antileishmanial activity against Leishmania donovani promastigotes expressing green fluorescence protein assessed as decrease in mean fluorescence intensity. It is filed as functional, organism-based.
The test system of data set [7] is Leishmania donovani. Kind of data set: Antileishmanial activity against Leishmania donovani infected in hamster assessed inhibition of parasite growth at 200 mg/kg, po after 5 days. Details: scale not given: the % may be the effect or the level left. The data set is classed as functional.
The test system of data set [8] is Leishmania donovani. The experiment in a line: Antileishmanial activity against Leishmania donovani promastigotes expressing green fluorescence protein by flow cytometry. It is filed as functional.
The subject of data set [9] is Leishmania donovani. Kind of data set: Antileishmanial activity against Leishmania donovani infected in hamster assessed inhibition of parasite growth at 100 mg/kg, po after 5 days. It is filed as functional. Further details: scale not given: the % may be the effect or the level left.
The subject of data set [10] is Leishmania donovani. The experiment in a line: Antileishmanial activity against Leishmania donovani amastigote infected in mouse J774A1 cells expressing green fluorescence protein assessed as decrease in mean fluorescence intensity up to 25 ug/ml. Conditions: J774.A1. The data set is classed as functional, organism-based.

As for `CCCCCCCCCCCCCCCCOP(=O)([O-])OCC[N+](C)(C)C` [MILTEFOSINE], in the data set with Leishmania donovani [1], the Activity worked out at 50%. This compound also had a concentration for half-maximal inhibition (IC50) with Leishmania donovani [2] of 5 µg/mL (≈ 12.3 µM).
For `Cl.OC1CCN2Cc3ccccc3N=C12` (stereo not given) [PEGANINE HYDROCHLORIDE], the outcome in the data set on Leishmania donovani [3] and in the data set on Leishmania donovani [10] was Active. The outcome in the data set with Leishmania donovani [4] was inactive. The Activity entry in the data set on J774.A1 was “Non-toxic”; with Leishmania donovani [5] it was 95.5%; with Leishmania donovani [6], “Dose-dependent effect”; with Leishmania donovani [7] it was 87.5%; in the data set with Leishmania donovani [8], 50%; with Leishmania donovani [9] it was 79.6%. In addition, the IC50 in the data set on Leishmania donovani [2] worked out at 41 µg/mL; in the data set on Leishmania donovani [6], 38 µg/mL. In addition, the IC90 in the data set on Leishmania donovani [2] was 85 µg/mL; with Leishmania donovani [6], 75 µg/mL.

A word on the IC50: it is the concentration needed to halve the response being measured. The IC90 is the concentration at which the effect reaches the 90% level.
